Reference: patent US10258691B2 (SignPath Pharma Inc., priority 2014, dated 2019)
Several values for one entry are separate records, joined by “and”; a condition that tells them apart may be missing. Identical values can stand only once. Entries after “also recorded” stand apart in the source; their conditions may differ. Counter-ions that a name gives are not always drawn.

How the values were obtained:
rabbits = conditions: intravenous injection of 20 mg; cited from earlier work
HEK293 cell = conditions: 20 μM, 24 h incubation; cited from earlier work
Male Hartley guinea pigs = assay: Moxifloxacin-induced QTc prolongation in guinea pigs, oral phospholipids; format: in vivo, guinea pig; conditions: for mitigation of MF-induced QT prolongation (in words): oral gavage 2 hours before 20 mg/kg i.v. MF, PL to drug ratio 1:1 (FIG. 11A)
hERG [1] = target: T1, hERG (Homo sapiens, UniProt Q12809); assay: Whole-cell patch-clamp, protective effect of DMPC, DMPG, DMPC/DMPG, LysoPG and LysoPC against hERG inhibition by Nilotinib; conditions: for inhibition of the hERG tail current density (in words) / Corrected Normalized Current Density / Normalized Current Density: HEK 293; for inhibition of the hERG tail current density (in words): lipid alone or Nilotinib 0.1 μM formulated in aqueous solution with lipid; for Corrected Normalized Current Density: corrected for solvent effect and current run-down, baseline 1.000; for Corrected Normalized Current Density / Normalized Current Density: Nilotinib 0.1 μM (alone in DMSO, with lipid in aqueous solution), 14:0 LysoPG […]; for Normalized Current Density: hERG tail current density relative to baseline 1.000, 5 min exposure; for protection against hERG inhibition caused by Nilotinib (in words): in vitro, co-formulated with Nilotinib
hERG [2] = target: T1, hERG; assay: Whole-cell patch-clamp, protective effect of 10:0-18:0 Lyso PG and 14:0 EGPG against hERG inhibition by Nilotinib; format: cell-based; design: expressed in transfected cells; host or cells: HEK 293, stably transfected with the hERG gene (HEK-hERG); conditions: for protective effect against hERG inhibition by Nilotinib (in words): PLs/Nilo ratio 9:1; for inhibition of the hERG tail current (in words): lipid alone or Nilotinib 0.5 μg/mL formulated with lipid […] (9:1)
Procedure: The purpose of this study is to evaluate in vitro the protective effect of 10:0 Lyso PG, 12:0 Lyso PG, 14:0 Lyso PG, 16:0 Lyso PG, 18:0 Lyso PG and 14:0 EGPG on the rapidly activating delayed-rectifier potassium selective current (IK) generated under normoxic conditions in stably transfected Human Embryonic Kidney cells (HEK 293 cells).
The test samples were prepared as follows. […] The solution was vortexed for 10 minutes before being used in the patch-clamp assay.
Test performed: Whole-cell patch-clamp current acquisition and analysis. Temperature: 35±2° C. Original data acquisition design: Acquisition Rate(s): 1.0 kHz.
Patch-clamp current recording. […] Isolated cells were plated into 2-mL experimental chambers, mounted on the platform of an inverted microscope. The cells were superfused with external solution (in mM: NaCl 140.0, KCl 5.0, CaCl2 1.8, MgCl2 1.0, HEPES 10.0, dextrose 10.0, pH 7.4±0.05). A 2-10 MΩ resistance pipette was filled with the pipette solution (in mM: KCl 140.0, MgCl2 1.0, Mg-ATP 4.0, EGTA 5.0, HEPES 10.0, sucrose 10.0, pH 7.4±0.05), and brought to contact the external membrane of a single cell.
Application of test samples: 5 minutes of exposure to each concentration in presence of closed circuit perfusion (2 mL/min). 5 minutes for washout periods in presence of a flow-through perfusion (2 mL/min) in addition to a closed circuit perfusion (2 mL/min). […] Cells were under continuous stimulation of the pulses protocol throughout the studies and cell currents were recorded after 5 minutes of exposure to each condition.
Statistical analysis: Statistical comparisons were made using paired Student's t-tests, comparing each treatment period with its corresponding value at the baseline condition. The currents recorded after the exposure of each test sample were compared to the currents recorded in baseline conditions. Differences were considered significant when p≤0.05.
Effect of the Test Samples on whole-cell IKr hERG currents. Whole-cell currents elicited during a voltage pulse were recorded in baseline conditions and following the application of the selected concentration of test sample. The cells were depolarized for one second from the holding potential (−80 mV) to a maximum value of +40 mV, starting at −40 mV and progressing in 10 mV increments. The membrane potential was then repolarized to −55 mV for one second, and finally returned to −80 mV.
Whole-cell tail current amplitude was measured at a holding potential of −55 mV, following activation of the current from −40 to +40 mV. Current amplitude was measured at the maximum (peak) of this tail current. Current density was obtained by dividing current amplitude by cell capacitance measured prior to capacitive transient minimization.
Current run-down and solvent effect correction. All data points presented in this example were corrected for solvent effect and time-dependent current run-down. Current run-down and solvent effects were measured simultaneously by applying the study design in test sample-free conditions over the same time frame as was done with the test sample. The loss in current amplitude measured during these so-called vehicle studies (representing both solvent effects and time-dependent run-down) was subtracted from the loss of amplitude measured in the presence of the test sample to isolate the effect of the test sample, apart from the effect of the solvent and the inevitable run-down in current amplitude over time.

Sprague Dawley male rats = assay: Moxifloxacin-induced QTc prolongation in rats, oral complex pre-treatment; format: in vivo; conditions: rat; Moxifloxacin 20 mg/kg i.v. over 20 minutes
Text: Methods. The present inventors formulated the product in a complex mixture as an oral application in order to facilitate drug delivery in cancer patients being treated with oral LQTS inducing drugs. Preclinical evaluation of the oral application was done by instrumented Sprague Dawley male (250-300 g) rats. Cutaneous ECG leads were used to maximize T wave detection. The animals in groups of 3 rats were briefly anesthetized with a light dose of isoflurane, and a pre-treatment ECG was obtained to establish well-defined T waves, and to rule-out existing arrhythmic predispositions. Pre-treatment ECG profiles were normal.
A single dose of the oral complex in the ratio of 9:1 Moxifloxicin was vortexed continuously for 5 minutes to obtain an emulsion and immediately administered by gavage. Moxifloxacin, a broad spectrum antibiotic with documented LQTS activity, was formulated in DMSO and 2 hours afterwards infused intravenously (femoral canula) over 20 minutes at a starting dose of 2.8 mg/kg. ECGs were recorded from 5 minutes prior to and during the 20 minute infusion. Then the animals were dosed at 6.1 mg/kg over 20 minutes; then 20 mg/kg over 20 minutes. In a positive control group moxifloxacin was infused alone. In a second group of rats the complex was given orally 2 hours prior to the first dose of moxifloxacin. […]

T1 sequence (Q12809 whole entry): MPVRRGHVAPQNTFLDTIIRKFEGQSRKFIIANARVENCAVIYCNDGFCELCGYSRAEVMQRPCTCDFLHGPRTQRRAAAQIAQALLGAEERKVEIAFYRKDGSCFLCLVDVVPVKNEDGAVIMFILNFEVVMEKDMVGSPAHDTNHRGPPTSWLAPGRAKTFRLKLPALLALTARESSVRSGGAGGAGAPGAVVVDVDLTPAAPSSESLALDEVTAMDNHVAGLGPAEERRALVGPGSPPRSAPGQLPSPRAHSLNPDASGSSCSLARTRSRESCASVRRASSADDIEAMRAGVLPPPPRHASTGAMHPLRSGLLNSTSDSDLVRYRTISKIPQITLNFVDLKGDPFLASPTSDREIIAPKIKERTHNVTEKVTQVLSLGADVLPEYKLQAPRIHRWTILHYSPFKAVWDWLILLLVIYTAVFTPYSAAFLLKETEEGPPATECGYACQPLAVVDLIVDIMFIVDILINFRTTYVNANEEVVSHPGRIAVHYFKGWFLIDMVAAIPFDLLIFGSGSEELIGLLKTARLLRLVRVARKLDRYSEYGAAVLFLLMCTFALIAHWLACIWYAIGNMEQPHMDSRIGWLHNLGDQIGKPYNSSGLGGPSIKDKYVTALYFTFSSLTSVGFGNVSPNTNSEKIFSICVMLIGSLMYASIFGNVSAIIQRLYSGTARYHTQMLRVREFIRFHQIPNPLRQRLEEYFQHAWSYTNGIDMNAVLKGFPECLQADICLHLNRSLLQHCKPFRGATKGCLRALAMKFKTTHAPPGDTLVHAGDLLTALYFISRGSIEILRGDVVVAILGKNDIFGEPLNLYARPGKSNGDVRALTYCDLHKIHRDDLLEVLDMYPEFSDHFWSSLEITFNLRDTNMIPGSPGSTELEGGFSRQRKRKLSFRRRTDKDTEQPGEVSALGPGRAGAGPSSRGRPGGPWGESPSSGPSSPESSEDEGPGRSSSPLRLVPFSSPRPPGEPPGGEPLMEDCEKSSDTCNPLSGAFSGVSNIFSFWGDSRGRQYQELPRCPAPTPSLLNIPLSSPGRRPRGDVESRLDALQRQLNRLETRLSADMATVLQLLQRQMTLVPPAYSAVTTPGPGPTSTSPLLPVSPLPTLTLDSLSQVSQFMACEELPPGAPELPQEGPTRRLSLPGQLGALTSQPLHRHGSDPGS

COc1cc(/C=C/C(=O)/C=C(O)/C=C/c2ccc(O)c(OC)c2)ccc1O [curcumin, Curcumin]
cardiac repolarization manifested by QTc values (rabbits): did not affect the cardiac repolarization | HEK293 cell viability (HEK293 cell): reduced the HEK293 cell viability

CCCCCCCCCCCCCC(=O)OC[C@H](COP(=O)([O-])OCC(O)CO)OC(=O)CCCCCCCCCCCCC.[Na+] (some centres unmarked) [DMPG, 1,2-dimyristoyl-sn-glycero-3-[phosphoric-(1-glycerol)] (sodium salt)]
mitigation of MF-induced QT prolongation (in words) (Male Hartley guinea pigs): prevented the MF-induced QTs prolongation | inhibition of the hERG tail current density (in words) (hERG [1]): did not cause any inhibition | Corrected Normalized Current Density (hERG [1]): 0.994 | Normalized Current Density (hERG [1]): 0.800 | protection against hERG inhibition caused by Nilotinib (in words) (hERG [1]; (sodium salt)): protects against hERG inhibition; also recorded: abrogated the effects of nilotinib

CCCCCCCCCCCCCCCCCC(=O)OC[C@@H](O)COP(=O)([O-])OCC(O)CO.[Na+] (mixture of isomers) [18:0 LysoPG, 1-stearoyl-2-hydroxy-sn-glycero-3-[phospho-rac-(1-glycerol)] sodium salt]
protective effect against hERG inhibition by Nilotinib (in words) (hERG [2]): prevented the inhibition | inhibition of the hERG tail current (in words) (hERG [2]): did not cause any inhibition

CCCCCCCCCCCCCCCC(=O)OC[C@@H](O)COP(=O)([O-])OCC(O)CO.[Na+] (mixture of isomers) [16:0 LysoPG, 1-palmitoyl-2-hydroxy-sn-glycero-3-[phospho-rac-(1-glycerol)] sodium salt]
protective effect against hERG inhibition by Nilotinib (in words) (hERG [2]; listed as 16:0 Lyso PG, sodium salt): higher protective | protective effect against hERG inhibition by Nilotinib (in words) (hERG [2]; sodium salt): prevented the inhibition; also recorded: most potent | inhibition of the hERG tail current (in words) (hERG [2]): did not cause any inhibition

CCCCCCCCCCCC(=O)OC[C@@H](O)COP(=O)([O-])OCC(O)CO.[Na+] (mixture of isomers) [12:0 LysoPG, 1-dodecanoyl-2-hydroxy-sn-glycero-3-[phospho-rac-(1-glycerol)] sodium salt]
protective effect against hERG inhibition by Nilotinib (in words) (hERG [2]): prevented the inhibition | inhibition of the hERG tail current (in words) (hERG [2]): did not cause any inhibition

CCCCCCCCCC(=O)OC[C@@H](O)COP(=O)([O-])OCC(O)CO.[Na+] (mixture of isomers) [10:0 LysoPG, 1-decanoyl-2-hydroxy-sn-glycero-3-[phospho-rac-(1-glycerol)] sodium salt]
protective effect against hERG inhibition by Nilotinib (in words) (hERG [2]): prevented the inhibition | inhibition of the hERG tail current (in words) (hERG [2]): did not cause any inhibition

CCCCCCCCCCCCCC(=O)OC[C@@H](O)COP(=O)(O)OCC(O)CO (mixture of isomers) [14:0 LysoPG, 1-myristoyl-2-hydroxy-sn-glycero-3-[phospho-rac-(1-glycerol)] sodium salt]
protective effect against hERG inhibition by Nilotinib (in words) (hERG [2]; listed as 14:0 Lyso PG, sodium salt): higher protective | protective effect against hERG inhibition by Nilotinib (in words) (hERG [2]; sodium salt): prevented the inhibition; also recorded: most potent | inhibition of the hERG tail current (in words) (hERG [2]): did not cause any inhibition | inhibition of the hERG tail current density (in words) (hERG [1]): did not cause any inhibition | Corrected Normalized Current Density (hERG [1]): 1.124 | Normalized Current Density (hERG [1]): 0.930 | protection against hERG inhibition caused by Nilotinib (in words) (hERG [1]): protects against hERG inhibition

COc1c(N2C[C@@H]3CCCN[C@@H]3C2)c(F)cc2c(=O)c(C(=O)O)cn(C3CC3)c12 [Moxifloxacin]
QTc prolongation (Male Hartley guinea pigs; 20 mg/kg i.v. MF): 35 ms | QTc prolongation (Sprague Dawley male rats): 48 ms and 55 ms

Cc1cn(-c2cc(NC(=O)c3ccc(C)c(Nc4nccc(-c5cccnc5)n4)c3)cc(C(F)(F)F)c2)cn1 [Nilotinib, reference compound]
inhibition at 5 min, 1 μM (hERG [2]; human, HEK 293 cells stably transfected with hERG, pH 7.4, read-out: inhibition of the hERG tail current): 70%

CCCCCCCCCCCCCC(=O)OCCOP(=O)(O)OCC(O)CO.N (centres unmarked) [14:0 EGPG, 2,3-dihydroxypropyl(2-[tetradecanoyloxy]ethyl)phosphate (ammonium salt)]
protective effect against hERG inhibition by Nilotinib (in words) (hERG [2]; (ammonium salt)): prevented the inhibition; also recorded: higher protective | inhibition of the hERG tail current (in words) (hERG [2]): did not cause any inhibition | mitigation of MF-induced QT prolongation (in words) (Male Hartley guinea pigs): prevented the MF-induced QTs prolongation
